# Data from US20240418703A1, “CULTURE MEDIUM FOR PRIMARY OVARIAN CANCER CELLS, CULTURE METHOD AND APPLICATION THEREOF” (PRECEDO PHARMACEUTICALS CO., LTD, priority 2021, published 2024).
# Where two headings read alike, the source gives them in different places.
# Experiments:
# [1] = tested on: primary ovarian cancer cells; test: Effect of single additives in Basal Medium on proliferation of primary ovarian cancer cells (cell counting); assay type: cell-based, human; design: key: +: compared with the Basal Medium, the culture medium added with the additive(s) has the effect of promoting the proliferation of two cases of primary ovarian cancer cells isolated from ovarian cancer tissue; −: the culture medium added with the additive(s) has the effect of promoting the proliferation of one case of primary ovarian cancer cells isolated from ovarian cancer tissue; the culture medium added with the additive(s) has no significant effect on the proliferation of at least two cases of primary ovarian cancer cells isolated from ovarian cancer tissue
# Experimental: First, a Basal Medium containing initial medium was prepared. The initial medium may be selected from the group consisting of DMEM/F12, DMEM, F12, or RPMI-1640 commonly used in the art. In this example, the formulation of the Basal Medium is: DMEM/F12 medium (purchased from Corning)+100 μg/mL Primocin (purchased from InvivoGen, 0.2% (v/v), commercial product has a concentration of 50 mg/mL). Different types of additives (see Table 1) were added to the Basal Medium to prepare culture mediums for primary ovarian cancer cells with different components.
# Tissue samples (intraoperative) of ovarian cancer solid tumor were obtained from patients by professional medical practitioner of professional medical institutions, and all patients have signed the informed consent. Intraoperative samples having the size of 0.25 cm^3, endoscopic samples having the size of 0.025 cm^3 were stored and transported using commercial tissue preservation solution (manufacturer: Miltenyi Biotec).
# Tissue digestion solution: 1640 medium (Corning, 10-040-CVR), collagenase II (2 mg/mL), collagenase IV (2 mg/mL), DNase (50 U/mL), hyaluronidase (0.75 mg/mL), calcium chloride (3.3 mM), BSA (10 mg/mL).
# • 3.1. Tissue samples were transferred from the ultra-clean workbench to a culture dish, and the tissue with blood was removed. The tissue samples were rinsed twice with Basal Medium, and then were transferred to another culture dish and mechanically cut with a sterile scalpel into tissue blocks of 1×1×1 mm^3 in size. • 3.2. The cut intraoperative tissues were aspirated into a 15 mL centrifuge tube, to which 5 mL of Basal Medium was added, fully mixed, and then centrifuged at 1500 rpm for 4 minutes. • 3.3. The supernatant was discarded, and the resultant was added with 1:3 mixture of Basal Medium and tissue digestion solution (the amount of tissue digestion solution added was about 10 mL tissue digestion solution for 1 g of tumor tissue). The samples were marked with names and numbers, sealed with sealing film, and then digested in a shaker (Zhichu Instrument ZQLY-180N) at 37° C., 300 rpm. The completion of digestion was determined via observation every 30 minutes, based on the existing of visible particles or not. The digestion time was 4 hours. • 3.4. After the digestion was completed, undigested tissue mass was filtered out through a […] filter mash. The tissue mass on the filter mash was rinsed into the centrifuge tube with Basal Medium to reduce cell loss. The resultant was centrifuged at 25° C., 1500 rpm for 4 minutes. • 3.5. […] If there were blood cells, 8 mL blood cell lysate (purchased from Sigma) was added in the resultant and fully mixed, lysed at 4° C. for 20 minutes, with inverting and mixing once during the process. The resultant was centrifuged at 25° C., 1500 rpm for 4 minutes. • 3.6. The supernatant was discarded and 2 mL Basal Medium was added to resuspend the cells for reserve.
# • 4.1. Microscopic observation: a small amount of resuspended cells were plated in a culture dish, and the density and morphology of cancer cells were observed under a microscope (CNOPTEC, BDS400); • 4.2. Viable cell counting: 12 μL of the resuspended cell suspension was fully mixed with 12 μL of trypan blue staining solution (Sangon Biotech (Shanghai) Co., Ltd.), and then 20 μL of the mixture was added into a cell counting plate (Countstar, specifications: 50 pieces/box).
# The primary ovarian cancer cells isolated from 2 cases of ovarian cancer tissues (numbered L40 and LQQ) according to the above step (2) were resuspended in the culture medium in Table 1, respectively and the cell number was counted. The Basal Medium was mixed with matrigel (Corning®, 356231) in a 50:1 ratio on ice. 300 μL of the mixture was plated and incubated in a 5% CO2 incubator at 37° C. for 25-35 minutes, preferably 30 minutes. The supernatant was discarded. […]
# [2] = tested on: primary ovarian cancer cells; test: Effect of different concentrations of added factors on proliferation of primary ovarian cancer cells (ratio to Blank Control); assay type: cell-based, human
# [3] = additive in Basal Medium at the final concentration, samples L40 and LQQ, 7-10 days of culture, versus Basal Medium
# [4] = factor added to the medium lacking it, FIGS. 2A-2L
# [5] = samples A26083, L56, L62, FIGS. 2A-2L
molecule,measurement,setting,value
"Cc1c[nH]c(-c2cnc(NCCNc3ccc(C#N)cn3)nc2-c2ccc(Cl)cc2Cl)n1 [CHIR99021, reference compound]",Level of promoting proliferation,[1]; [3],○
"CN1C(=O)C(c2c(F)cccc2F)N(C)c2nc(Nc3ccc(S(N)(=O)=O)cc3)ncc21 (centres unmarked) [Compound 1, 4-((7-(2,6-Difluorophenyl)-5,8-dimethyl-6-oxo-5,6,7,8-tetrahydropteridin-2-yl)amino)benzsulfamide]",concentration at which the cell proliferation effect is most significant,[2]; [4],5 µM
same,proliferation-promoting effect on primary ovarian cancer cells,[2]; [5],significant proliferation-promoting effect
same,Level of promoting proliferation,[1]; [3],+
"Cc1cccc(-c2nn(C(=S)Nc3ccccc3)cc2-c2ccnc3ccccc23)n1 [Compound A8301, A8301, reference compound]",Level of promoting proliferation,[1]; [3],○
"C[C@@H](N)[C@H]1CC[C@H](C(=O)Nc2ccncc2)CC1 [Compound Y-27632, Y-27632, reference compound]",concentration at which the cell proliferation effect is most significant,[2]; [4],5 µM
same,proliferation-promoting effect on primary ovarian cancer cells,[2]; [5],significant proliferation-promoting effect
same,Level of promoting proliferation,[1]; [3],+
"Oc1ccc(-c2nc(-c3ccncc3)c(-c3ccc(F)cc3)[nH]2)cc1 [SB202190, reference compound]",Level of promoting proliferation,[1]; [3],○
"NC(=O)c1ccc(-c2nc(-c3ccc4c(c3)OCO4)c(-c3ccccn3)[nH]2)cc1 [SB431542, reference compound]",Level of promoting proliferation,[1]; [3],○
"C[C@]12CCC(=O)C=C1CC[C@@H]1[C@@H]2[C@@H](O)C[C@@]2(C)[C@H]1CC[C@]2(O)C(=O)CO [hydrocortisone, reference compound]",Level of promoting proliferation,[1]; [3],○
"NC(=O)c1cccnc1 [nicotinamide, reference compound]",Level of promoting proliferation,[1]; [3],○
"CCCCC[C@H](O)/C=C/[C@H]1[C@H](O)CC(=O)[C@@H]1C/C=C\CCCC(=O)O [prostaglandin E2, reference compound]",concentration at which the cell proliferation effect is most significant,[2]; [4],2.5 µM
same,proliferation-promoting effect on primary ovarian cancer cells,[2]; [5],significant proliferation-promoting effect
same,Level of promoting proliferation,[1]; [3],−
"CC(=O)C(=O)[O-].[Na+] [sodium pyruvate, reference compound]",Level of promoting proliferation,[1]; [3],○
basic fibroblast growth factor,Level of promoting proliferation,[1]; [3],○
cholera toxin,concentration at which the cell proliferation effect is most significant,[2],0.1 µg/mL
same,more preferable amount according to the results of this example,[2],0.05 to 0.2 µg/mL
same,preferable amount according to the results of this example,[2],50 to 800 ng/mL
same,proliferation-promoting effect on primary ovarian cancer cells,[2],significant proliferation-promoting effect
same,Level of promoting proliferation,[1],+
epidermal growth factor,preferable amount according to the results of this example,"[2]; preferably, FIGS. 2A-2L",2.5 to 40 ng/mL
same,proliferation-promoting effect on primary ovarian cancer cells,[2]; [5],significant proliferation-promoting effect
same,Level of promoting proliferation,[1]; [3],−
hepatocyte growth factor,Level of promoting proliferation,[1]; [3],○
insulin,concentration at which the cell proliferation effect is most significant,[2]; [4],9 µg/mL
same,more preferable amount according to the results of this example,"[2]; more preferably, FIGS. 2A-2L",3 to 9 µg/mL
same,proliferation-promoting effect on primary ovarian cancer cells,[2]; [5],significant proliferation-promoting effect
same,Level of promoting proliferation,[1]; [3],+
insulin-like growth factor-1,concentration at which the cell proliferation effect is most significant,[2]; [4],0.05 µg/mL
same,preferable amount according to the results of this example,"[2]; preferably, FIGS. 2A-2L",25 to 100 ng/mL
same,proliferation-promoting effect on primary ovarian cancer cells,[2]; [5],significant proliferation-promoting effect
same,Level of promoting proliferation,[1]; [3],+
neuregulin −1,Level of promoting proliferation,[1]; [3],○
vitamin E [reference compound],Level of promoting proliferation,[1]; [3],○
"amphiregulin (protein, UniProt P15514 101-187, looked up, Amphiregulin, medium additive, supplier MCE) Amphiregulin: SVRVEQVVKPPQNKTESENTSDKPKRKKKGGKNGKNRRNRKKKNPCNAEFQNFCIHGECKYIEHLEAVTCKCQQEYFGERCGEKSMK",concentration at which the cell proliferation effect is most significant,[2]; [4],0.003 µg/mL
same,preferable amount according to the results of this example,"[2]; preferably, FIGS. 2A-2L",1 to 81 ng/mL
same,proliferation-promoting effect on primary ovarian cancer cells,[2]; [5],significant proliferation-promoting effect
same,Level of promoting proliferation,[1]; [3],+
"noggin (protein, UniProt Q13253 28-232, looked up, medium additive, supplier R&D) Noggin: QHYLHIRPAPSDNLPLVDLIEHPDPIFDPKEKDLNETLLRSLLGGHYDPGFMATSPPEDRPGGGGGAAGGAEDLAELDQLLRQRPSGAMPSEIKGLEFSEGLAQGKKQRLSKKLRRKLQMWLWSQTFCPVLYAWNDLGSRFWPRYVKVGSCFSKRSCSVPEGMVCKPSKSVHLTVLRWRCQRRGGQRCGWIPIQYPIISECKCSC",Level of promoting proliferation,[1]; [3],○
"R-spondin1 (protein, UniProt Q2MKA7 21-263, looked up, medium additive, supplier R&D) R-spondin-1: SRGIKGKRQRRISAEGSQACAKGCELCSEVNGCLKCSPKLFILLERNDIRQVGVCLPSCPPGYFDARNPDMNKCIKCKIEHCEACFSHNFCTKCKEGLYLHKGRCYPACPEGSSAANGTMECSSPAQCEMSEWSPWGPCSKKQQLCGFRRGSEERTRRVLHAPVGDHAACSDTKETRRCTVRRVPCPEGQKRRKGGQGRRENANRNLARKESKEAGAGSRRRKGQQQQQQQGTVGPLTSAGPA",Level of promoting proliferation,[1]; [3],○
"human fibroblast growth factor −10 (protein, UniProt O15520 38-208, looked up, medium additive, supplier sino biological) Fibroblast growth factor 10: QALGQDMVSPEATNSSSSSFSSPSSAGRHVRSYNHLQGDVRWRKLFSFTKYFLKIEKNGKVSGTKKENCPYSILEITSVEIGVVAVKAINSNYYLAMNKKGKLYGSKEFNNDCKLKERIEENGYNTYASFNWQHNGRQMYVALNGKGAPRRGQKTRRKNTSAHFLPMVVHS",Level of promoting proliferation,[1]; [3],○
"fibroblast growth factors 7 (protein, UniProt P21781 32-194, looked up, medium additive, supplier R&D) Fibroblast growth factor 7: CNDMTPEQMATNVNCSSPERHTRSYDYMEGGDIRVRRLFCRTQWYLRIDKRGKVKGTQEMKNNYNIMEIRTVAVGIVAIKGVESEFYLAMNKEGKLYAKKECNEDCNFKELILENHYNTYASAKWTHNGGEMFVALNQKGIPVRGKKTKKEQKTAHFLPMAIT",Level of promoting proliferation,[1]; [3],○
